These results are taken from patent US20030228621A1, “Common ligand universal enzyme assay and compositions for use therein” (priority 2002, published 2003).

The term Kd denotes the free concentration of one partner at which half of the binding sites on the other are occupied at equilibrium, for simple one-to-one binding. Read a high Kd as weaker binding.

Data set [1] is described as follows: Stability of dehydrogenases and FITC-NADH by fluorescence polarization over time. Particulars: 1.5 nM FITC-NADH with EACPR, GAPDH or DHPR. It counts as physicochemical. The procedure: The fluorescence polarization of solutions of 10 μM enoyl ACP reductase, 5.6 μM glyceraldehyde-3-phosphate dehydrogenase and 10 μM dihydrodipicolinate reductase with 1.5 nM FITC-NADH, was measured. The concentration of the dehydrogenase was such that the solution of dehydrogenase and FITC-NADH would give the polarization mP value of 70-80. The blank was a solution of protein in buffer. Fluorescence polarization measurements were taken for 2 hours at 5 minute intervals.
In general terms: Polarisation of emitted light reports the rotation of a fluorescent probe.

In data set [2] the target is dihydrodipicolinate reductase (DHPR) (Escherichia coli, UniProt P04036). Description: Fluorescence polarization binding of FITC-NADH titrated with dihydrodipicolinate reductase (FIG. 4). To be noted: 25 nM FITC-NADH, 20 mM Potassium Phosphate, pH 7.4, or 20 mM HEPES, pH 7.8, fit of mP vs Log(DHPR). On the procedure: This example illustrates the determination of the concentration of FITC-NADH that would provide the best signal to noise ratio for fluorescence polarization assay. FITC-NADH was dissolved in 10 mM TAPS buffer with 5% NaHCO3, pH=8. The final concentration of FITC-NADH was 150 μM. In later experiments 150 μM FITC-NADH was diluted to the desired concentration in 20 mM Potassium Phosphate buffer, pH=7.4. Fluorescence polarization was monitored using a Beacon 2000 Variable Temperature Fluorescence Polarization System (PanVera Corporation, Madison, Wis.) and an LJL Analyst HT 96-384 (Molecular Devices Corporation, Sunnyvale, Calif.). The concentration of FITC-NADH as fluorescent tracer was selected by measuring fluorescence polarization of varying concentrations of FITC-NADH in 10 mM Potassium Phosphate buffer, pH=7.4. The concentration range was 0.15 nM—15 nM. For the best signal to noise ratio regarding both the horizontal and vertical intensities that contribute to the fluorescence polarization value, a concentration of 25 nM was chosen for FITC-NADH in the majority of experiments.
This example illustrates the binding characteristics of FITC-NADH to various dehydrogenases. […] An individual blank of protein in buffer was measured for each point. […] FITC-NADH was added to the test tubes and the fluorescence polarization measurement was taken. […]

Sequence of dihydrodipicolinate reductase (DHPR) (P04036 whole entry): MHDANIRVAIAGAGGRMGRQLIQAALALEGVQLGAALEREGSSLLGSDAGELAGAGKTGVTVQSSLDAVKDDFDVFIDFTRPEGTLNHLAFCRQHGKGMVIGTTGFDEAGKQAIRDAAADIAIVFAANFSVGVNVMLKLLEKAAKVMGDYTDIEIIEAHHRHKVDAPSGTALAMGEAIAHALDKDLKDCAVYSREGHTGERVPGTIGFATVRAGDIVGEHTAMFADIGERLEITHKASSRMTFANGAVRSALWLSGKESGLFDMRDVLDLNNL

As to `NC(=O)C1=CN(C2OC(COP(=O)(O)OP(=O)(O)OCC3OC(n4cnc5c(NCCNC(=S)Nc6ccc(-c7c8ccc(=O)cc-8oc8cc(O)ccc78)c(C(=O)O)c6)ncnc54)C(O)C3O)C(O)C2O)C=CC1` (centres unmarked) [FITC-NADH, fluorescein isothiocyano-N^6-(2-aminoethyl)-NADH], in data set [1], the “time stable in fluorescence polarization assay” value amounted to 100 min. Further, the dissociation constant Kd in data set [2] was 1.4 ± 0.1 µM.
